The test system of this data set is DMD exon 23. Nature of the data set: Splicing modulation in vivo (DMD exon 23 skipping, nested RT-PCR ex vivo). The note with it: BALB/c mice, i.v., 375 µg PMO, 48 h after injection. On the procedure: 6-week-old female BALB/c mice (BALB/cByJRj, Janvier, Le Genest-Saint-Isle, France) were housed in isolated ventilated cages under pathogen-free conditions with a 12 h light/dark interval. The mice were acclimated for 7 days prior to treatments. Water and food were provided ad libitum. For splice switching in the physiological DMD gene, PMO formulations were prepared 48 h before intravenous injection, as described above. The freeze-dried PMO formulations were reconstituted with HBG to obtain a concentration of 375 μg PMO per 150 μL. The mice were randomly divided into three groups (n = 6 for PMO(Ex23)-1395, and n = 5 for free 3′ primary amine-modified PMO(Ex23) and PMO(705)-1395). 150 μL of PMO solution was injected intravenously into a lateral tail vein. 48 h after injection, the mice were euthanized and the brain, spleen, quadriceps femoris muscle, kidneys, liver, lung, and heart were harvested. For stabilization of the mRNA, the organs were incubated in RNAlater solution (Thermo Fisher Scientific, Waltham) overnight at 4 °C and afterward stored at −20 °C. Each organ was manually homogenized using a mortar and pestle and liquid nitrogen. […]
The final PCR products were analyzed by agarose gel electrophoresis (2% agarose gel; 100 V; 2 h). Individual band intensities were quantified and put into relation to the band of full-length DMD-Ex20–24 with a size of 633 bp by using ImageJ software.

We go through 1 substance from article PMC10739591, “mCherry on Top: A Positive Read-Out Cellular Platform for Screening DMD Exon Skipping Xenopeptide–PMO Conjugates” (Bioconjugate Chemistry, 2023).

As for “PMO(Ex23): PMO GGCCAAACCTCGGCTTACCTGAAAT with 3'-primary amine; targets donor splice site of DMD intron 23 (PMO, 3'-primary amine, chemistry not fully specified)”, the “DMD exon 23 skipping in skeletal muscle (quadriceps femoris)” value was “predominant splice-switching activity in the skeletal muscle”.
